In PMC5698592 (British Journal of Clinical Pharmacology, 2017):

Tests used:
[1] = Phase I safety assessment; assay type: in vivo, human; settings: fasted, healthy subjects; for Number of subjects who reported AEs / Number of subjects with AEs considered to be treatment‐related / Subjects who reported AEs / Subjects with AEs considered to be treatment‐related: after single oral dose of each treatment; for Abdominal pain, number of events / Abdominal pain, number of subjects / Dizziness, number of events / Dizziness, number of subjects / Dysphonia, number of events / Dysphonia, number of subjects / Euphoric mood, number of events / Euphoric mood, number of subjects / Fatigue, number of events / Fatigue, number of subjects / Feeling abnormal, number of events / Feeling abnormal, number of subjects / Headache, number of events / Headache, number of subjects / Nasal congestion, number of events / Nasal congestion, number of subjects / Nausea, number of events / Nausea, number of subjects / Rash, number of events / Rash, number of subjects / Rhinitis, number of events / Rhinitis, number of subjects / Rhinorrhoea, number of events / Rhinorrhoea, number of subjects / Somnolence, number of events / Somnolence, number of subjects / Vessel puncture site pain, number of events / Vessel puncture site pain, number of subjects / Vessel puncture site reaction, number of events / Vessel puncture site reaction, number of subjects: single oral dose
[2] = cited from earlier work
[3] = Phase I single-dose pharmacokinetics, plasma tramadol, M1 and celecoxib; assay type: in vivo, human; settings: for AUC(0-inf): human, plasma, po, 100 mg
[4] = tramadol administered alone in its conventional form; cited from earlier work
[5] = after use of IR tramadol; cited from earlier work
mu‐opioid receptor = settings: compared with tramadol itself; cited from earlier work
[6] = celecoxib alone vs. tramadol + celecoxib

Row | Compound | Number of subjects who reported AEs [1] | Number of subjects with AEs considered to be treatment‐related [1] | Subjects who reported AEs [1] [%] | Subjects with AEs considered to be treatment‐related [1] [%] | Abdominal pain, number of events [1] | Abdominal pain, number of subjects [1] | Dizziness, number of events [1] | Dizziness, number of subjects [1] | Dysphonia, number of events [1] | Dysphonia, number of subjects [1] | Euphoric mood, number of events [1] | Euphoric mood, number of subjects [1] | Fatigue, number of events [1] | Fatigue, number of subjects [1] | Feeling abnormal, number of events [1] | Feeling abnormal, number of subjects [1] | Headache, number of events [1] | Headache, number of subjects [1] | Nasal congestion, number of events [1] | Nasal congestion, number of subjects [1] | further results
1 | Cc1ccc(-c2cc(C(F)(F)F)nn2-c2ccc(S(N)(=O)=O)cc2)cc1 [celecoxib] | 12 | 8 | 34.3 | 22.9 | 0 | 0 | 1 / 1 | 1 / 1 | 1 / 1 | 1 / 1 | 0 | 0 | 0 | 0 | 0 | 0 | 1 / 1 | 1 / 1 | 1 / 1 | 1 / 1 | Nausea, number of events [1]: 0; Nausea, number of subjects [1]: 0; Rash, number of events [1]: 1 / 1; Rash, number of subjects [1]: 1 / 1; Rhinitis, number of events [1]: 1 / 1; Rhinitis, number of subjects [1]: 1 / 1; Rhinorrhoea, number of events [1]: 1 / 1; Rhinorrhoea, number of subjects [1]: 1 / 1; Somnolence, number of events [1]: 5 / 5; Somnolence, number of subjects [1]: 5 / 5; Vessel puncture site pain, number of events [1]: 2 / 2; Vessel puncture site pain, number of subjects [1]: 2 / 2; Vessel puncture site reaction, number of events [1]: 1 / 1; Vessel puncture site reaction, number of subjects [1]: 1 / 1; time to peak plasma concentrations ([2]; after administration of commercially available formulation): 2 to 3 h; elimination half‐life ([2]; commercially available formulation): 8 to 12 h; Ratio of geometric LS means (90% CI), celecoxib AUC τ, Treatment 3 vs. Treatment 4 [3, 6]: 110.39 (105.68–115.32) %; Ratio of geometric LS means (90% CI), celecoxib AUC ∞, Treatment 3 vs. Treatment 4 [3, 6]: 103.64 (99.37–108.09) %; Ratio of geometric LS means (90% CI), celecoxib C max, Treatment 3 vs. Treatment 4 [3, 6]: 163.92 (146.56–183.35) %; AUC(0-inf) [3]: 3200 ng·h/mL
2 | COc1cccc(C2(O)CCCCC2CN(C)C)c1 (stereo not drawn) [tramadol] | 14 | 14 | 40.0 | 40.0 | 2 / 2 | 2 / 2 | 4 / 4 | 4 / 4 | 1 / 1 | 1 / 1 | 2 / 2 | 2 / 2 | 2 / 2 | 2 / 2 | 1 / 1 | 1 / 1 | 1 / 1 | 1 / 1 | 1 / 1 | 1 / 1 | Nausea, number of events [1]: 6; Nausea, number of subjects [1]: 4; Rash, number of events [1]: 0; Rash, number of subjects [1]: 0; Rhinitis, number of events [1]: 0; Rhinitis, number of subjects [1]: 0; Rhinorrhoea, number of events [1]: 0; Rhinorrhoea, number of subjects [1]: 0; Somnolence, number of events [1]: 10 / 10; Somnolence, number of subjects [1]: 10 / 10; Vessel puncture site pain, number of events [1]: 0; Vessel puncture site pain, number of subjects [1]: 0; Vessel puncture site reaction, number of events [1]: 1 / 1; Vessel puncture site reaction, number of subjects [1]: 1 / 1; AUC(0-inf) [3]: 3060 ng·h/mL; elimination half‐life (T ½el) [4]: 5 to 6 h; subjects affected by the most common AEs (nausea and dizziness) [5]: > 10%
3 | (+)‐O‐desmethyl‐tramadol [M1] | – | – | – | – | – | – | – | – | – | – | – | – | – | – | – | – | – | – | – | – | affinity for the mu‐opioid receptor (mu‐opioid receptor): much greater affinity
